The source of these data is US6344190B1, “Method and compositions for treatment of fungal nail disease” (Board of Trustees of Michigan State University, priority 1999, dated 2002).

Data set [1] concerns Acremonium chrysogenum. As to the kind of experiment: Zone of inhibition assay (agar plates). The data set is classed as cell-based. Particulars: Hapsidospora chrysogena, 168 h; after 7 days, 250 μg/mL.
Data set [2] relates to A. strictum. As to the kind of experiment: Zone of inhibition assay (agar plates). Also on record: key to Zone of Inhibition: X denotes no observable zone of inhibition. Particulars: after 7 days, 250 μg/mL; for zone of inhibition at 250 µg/mL: Sarocladium strictum, 168 h. The data set is classed as cell-based, Acremonium strictum.
The subject of data set [3] is Aspergillus flavus. Briefly: Zone of inhibition assay (agar plates). Particulars: after 7 days, 250 μg/mL. Also on record: key to Zone of Inhibition: X denotes no observable zone of inhibition. The data set is classed as cell-based.
Data set [4] concerns A. terreus. Briefly: Zone of inhibition assay (agar plates). The data set is classed as cell-based, Aspergillus terreus. The following applies: after 7 days, 250 μg/mL. Set-up: key to Zone of Inhibition: X denotes no observable zone of inhibition.
For data set [5], the system named is Candida albicans. Briefly: Zone of inhibition assay (agar plates). The data set is classed as cell-based. Particulars: 168 h, after 7 days, 250 μg/mL.
The test system of data set [6] is C. kruseii. Briefly: Zone of inhibition assay (agar plates). The following applies: after 7 days, 250 μg/mL; for zone of inhibition at 250 µg/mL: 168 h. Also on record: key to Zone of Inhibition: X denotes no observable zone of inhibition. The data set is classed as cell-based.
The test system of data set [7] is C. parapsilosis. As to the kind of experiment: Zone of inhibition assay (agar plates). The data set is classed as cell-based. Particulars: Lodderomyces parapsilosis, 168 h; after 7 days, 250 μg/mL.
The test system of data set [8] is Epidermophyton floccosum. Briefly: Zone of inhibition assay (agar plates). The data set is classed as cell-based. Also on record: key to Zone of Inhibition: X denotes no observable zone of inhibition. The following applies: after 7 days, 250 μg/mL.
Data set [9] relates to Fusarium oxysporum. As to the kind of experiment: Zone of inhibition assay (agar plates). Also on record: key to Zone of Inhibition: X denotes no observable zone of inhibition. The following applies: after 7 days, 250 μg/mL. The data set is classed as cell-based.
In data set [10] the test system is F. proliferatum. Briefly: Zone of inhibition assay (agar plates). Also on record: key to Zone of Inhibition: X denotes no observable zone of inhibition. Particulars: after 7 days, 250 μg/mL. The data set is classed as cell-based.
For data set [11], the system named is Microsporum canis. Briefly: Zone of inhibition assay (agar plates). Type of data set: cell-based. Particulars: 168 h, after 7 days, 250 μg/mL.
Data set [12] concerns Scopulariopsis brevicaulis. As to the kind of experiment: Zone of inhibition assay (agar plates). The data set is classed as cell-based. Also on record: key to Zone of Inhibition: X denotes no observable zone of inhibition. Particulars: after 7 days, 250 μg/mL.
In data set [13] the test system is Scytalidium dimidiatum. As to the kind of experiment: Zone of inhibition assay (agar plates). The data set is classed as cell-based. Set-up: key: X denotes no observable zone of inhibition. Particulars: after 7 days, 250 μg/mL.
For data set [14], the system named is S. hyalinum. As to the kind of experiment: Zone of inhibition assay (agar plates). Type of data set: cell-based, Scytalidium hyalinum. Set-up: key to Zone of Inhibition: X denotes no observable zone of inhibition. The following applies: after 7 days, 250 μg/mL.
In data set [15] the test system is Trichophyton mentagrophytes. As to the kind of experiment: Zone of inhibition assay (agar plates). The data set is classed as cell-based. Also on record: key to Zone of Inhibition: X denotes no observable zone of inhibition. Particulars: after 7 days, 250 μg/mL.
Data set [16] concerns T. rubrum. Briefly: Zone of inhibition assay (agar plates). Type of data set: cell-based. The following applies: Trichophyton rubrum, 168 h; after 7 days, 250 μg/mL.
In data set [17] the test system is toenail onychomycosis. Particulars: oral treatment, toenail onychomycosis (Einarson et al. 1994); cited from earlier work.
For data set [18] the following is noted: oral treatment, literature reports; cited from earlier work.

One may read the zone of inhibition as the extent of the growth-free halo in a diffusion test.

“Also recorded” adds a separate entry of the source.

On to `Cc1ccc(C(C)C)c(O)c1` [T, Thymol], for which the zone of inhibition at 250 µg/mL in data set [1] was found to be 20 mm; in data set [2] it was 12 mm; in data set [3] (Aspergillus flavus, 168 h) it was 6 mm; in data set [4] (Aspergillus terreus, 168 h), 3 mm; in [5], 17 mm; in data set [6], 16 mm. Also, the zone of inhibition at 250 µg/mL stood at 20 mm in data set [7]; 2 mm in [9] (Fusarium oxysporum, 168 h); 3 mm in data set [10] (Fusarium proliferatum, 168 h); 20 mm in data set [11]; 14 mm in data set [12] (Scopulariopsis brevicaulis, 168 h); 5 mm in data set [14] (Neoscytalidium hyalinum, 168 h). The zone of inhibition at 250 µg/mL in data set [15] (Trichophyton mentagrophytes, 168 h) is 10 mm; in data set [16] it was 16 mm. Further, the “Zone of Inhibition” value in data set [8] and in data set [13] was “X” each time.

Take `CC12CCC(CC1=O)C2(C)C` (stereo not drawn) [Ca, Camphor]: the zone of inhibition at 250 µg/mL in [1] worked out at 10 mm; in [5], 7 mm; in data set [7], 7 mm; in data set [11], 2 mm; in data set [16], 8 mm. Moreover, the “Zone of Inhibition” value in data set [2], in data set [3], in [4], in data set [6], in data set [8] and in [9] was “X” in each case. Besides, the “Zone of Inhibition” value in [10], in data set [12], in data set [13], in data set [14] and in data set [15] was “X” throughout.

Consider `COC1=CC(=O)C[C@@H](C)[C@]12Oc1c(Cl)c(OC)cc(OC)c1C2=O` [GRI, griseofulvin], for which the “success rates of the treatments” value in data set [17] was 17.5%. Moreover, in data set [18], the side effects entry is “elevated liver enzymes”.

As to `CC1CCC(C(C)C)C(O)C1` (stereo not drawn) [M, Menthol], the zone of inhibition at 250 µg/mL was found to be 15 mm in [1]; 9 mm in [2]; 14 mm in data set [5]; 12 mm in [6]; 11 mm in data set [7]; 2 mm in [8] (Epidermophyton floccosum, 168 h). Moreover, the zone of inhibition at 250 µg/mL was 3 mm in data set [11] and 15 mm in [16]. Besides, the “Zone of Inhibition” value in data set [3], in [4], in [9], in data set [10], in data set [12] and in data set [13] was “X” throughout. Also, the “Zone of Inhibition” value in data set [14] and in data set [15] was “X” in each case.

For the compound `CC(=O)N1CCN(c2ccc(OCC3COC(Cn4ccnc4)(c4ccc(Cl)cc4Cl)O3)cc2)CC1` (stereo not drawn) [KET, ketoconazole], the “success rates of the treatments” value in data set [17] is 40.8%. In addition, in data set [18], the side effects entry was “elevated liver enzymes; also recorded: anti-androgenic dysfunction in males and adrenal dysfunction”.

For `CN(C/C=C/C#CC(C)(C)C)Cc1cccc2ccccc12` [TER, terbinafine], in [17], the “success rates of the treatments” value is recorded as 78.3%.

With `CCC(C)n1ncn(-c2ccc(N3CCN(c4ccc(OCC5COC(Cn6cncn6)(c6ccc(Cl)cc6Cl)O5)cc4)CC3)cc2)c1=O` (stereo not drawn) [itraconazole], the side effects entry in data set [18] was “elevations of serum transaminases, alkaline phosphatase and bilirubin”.
